Laboratory results reported in patent publication US10738028B2, “Spiro three-membered ring, spiro five-membered ring peptide deformylase inhibitor and use thereof in antibacteria and anti-tumor” (priority 2016, dated 2020).
Converted amounts (≈) assume the structure as drawn.

Legend:
Format in all cases: cell-based
[1] = tested on: HCT-116 colorectal cancer cell line; assay: CCK-8 proliferation inhibition; settings: Homo sapiens, HCT-116, 72 h, concentration of 30 μM; 72 hours; CCK-8; read-out: HCT116 inhibition rate/%
How it was run: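 Growth inhibition is read by CCK-8 (1:10 dilution) after 72 h of compound exposure. HCT-116 cells grow in McCoy's 5A containing 10% newborn bovine serum at 2000 cells/well, with 1‰ DMSO as vehicle control.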

[2] = tested on: methicillin-sensitive Staphylococcus epidermidis (MSSE); assay: MIC, two-fold agar dilution (CLSI), clinical isolates
Excerpt: (§1) 1. The invention adopts the two-fold agar dilution method recommended by the operating procedure of antimicrobial susceptibility testing set by American Clinical and Laboratory Standards Institute (CLSI) to determine the Minimum Inhibitory Concentration (MIC) of the test samples against the tested strains.

[3] = tested on: Streptococcus pneoumoniae (SPN); assay: as above
Excerpt: as §1

[4] = tested on: methicillin-sensitive Staphylococcus aureus (MSSA); assay: as above
Excerpt: as §1

[5] = tested on: methicillin-resistant Staphylococcus aureus (MRSA); assay: as above
Excerpt: as §1

[6] = tested on: Moraxella catarrhalis (BCA); assay: as above; settings: for Anti-bacterial activity (MIC), strain BCA 14-10: clinical isolate BCA 14-10
Excerpt: as §1

[7] = tested on: methicillin-resistant Staphylococcus epidermidis (MRSE); assay: as above
Excerpt: as §1

[8] = tested on: Escherichia coli (including ESBLs, non-ESBLs); assay: as above
Excerpt: as §1

[9] = tested on: Enterococcus faecalis (EFA); assay: as above
Excerpt: as §1

[10] = tested on: Enterococcus faecium (EFM); assay: as above
Excerpt: as §1

O=CN(O)C[C@@H](CC1CCCC1)C(=O)N1CC2(CC2)C[C@H]1C(=O)Nc1ccno1 [Example 37, (S)-5-((R)-3-cyclopentyl-2-((N-hydroxyformamido)methyl)propionyl)-N-(isoxazol-5-yl)-5-azaspiro[2.4]heptane-6-carboxamide]
inhibition at 30 µM [1]: 16%
MIC (anti-bacterial activity) ([2]; strain MSSE 15-3): 1 µg/mL (≈ 2.47 µM)
MIC (anti-bacterial activity) ([2]; strain MSSE 15-4): 1 µg/mL (≈ 2.47 µM)
MIC (anti-bacterial activity) ([2]; strain MSSE 15-5): 1 µg/mL (≈ 2.47 µM)
MIC (anti-bacterial activity) ([2]; strain MSSE 15-6): 1 µg/mL (≈ 2.47 µM)
MIC (anti-bacterial activity) ([3]; strain SPN 16-2): 0.5 µg/mL (≈ 1.24 µM)
MIC (anti-bacterial activity) ([3]; strain SPN 16-4): 4 µg/mL (≈ 9.89 µM)
MIC (anti-bacterial activity) ([4]; strain MSSA 15-3): 1 µg/mL (≈ 2.47 µM)
MIC (anti-bacterial activity) ([4]; strain MSSA 15-4): 1 µg/mL (≈ 2.47 µM)
MIC (anti-bacterial activity) ([4]; strain MSSA 15-5): 0.5 µg/mL (≈ 1.24 µM)
MIC (anti-bacterial activity) ([4]; strain MSSA 15-6): 1 µg/mL (≈ 2.47 µM)
MIC (anti-bacterial activity) ([5]; strain MRSA 15-1): 0.5 µg/mL (≈ 1.24 µM)
MIC (anti-bacterial activity) ([5]; strain MRSA 15-2): 1 µg/mL (≈ 2.47 µM)
MIC (anti-bacterial activity) ([5]; strain MRSA 15-3): 0.5 µg/mL (≈ 1.24 µM)
MIC (anti-bacterial activity) ([5]; strain MRSA 15-4): 0.2 µg/mL (≈ 0.494 µM)
Anti-bacterial activity (MIC), strain BCA 14-10 [6]: 3 µg/mL
MIC (anti-bacterial activity) ([6]; strain BCA 14-1): 2 µg/mL (≈ 4.94 µM)
MIC (anti-bacterial activity) ([6]; strain BCA 14-4): 2 µg/mL (≈ 4.94 µM)
MIC (anti-bacterial activity) ([6]; strain BCA 14-5): 2 µg/mL (≈ 4.94 µM)
MIC (anti-bacterial activity) ([6]; strain BCA 14-6): 2 µg/mL (≈ 4.94 µM)
MIC (anti-bacterial activity) ([6]; strain BCA 14-7): 3 µg/mL (≈ 7.42 µM)
MIC (anti-bacterial activity) ([6]; strain BCA 14-8): 2 µg/mL (≈ 4.94 µM)
MIC (anti-bacterial activity) ([7]; strain MRSE 15-1): 0.5 µg/mL (≈ 1.24 µM)
MIC (anti-bacterial activity) ([7]; strain MRSE 15-2): 1 µg/mL (≈ 2.47 µM)
MIC (anti-bacterial activity) ([7]; strain MRSE 15-3): 1 µg/mL (≈ 2.47 µM)
MIC (anti-bacterial activity) ([7]; strain MRSE 15-7): 1 µg/mL (≈ 2.47 µM)
MIC (anti-bacterial activity) ([8]; strain ECO+ 15-1): 32 µg/mL (≈ 79.1 µM)
MIC (anti-bacterial activity) ([8]; strain ECO+ 15-2): 32 µg/mL (≈ 79.1 µM)
MIC (anti-bacterial activity) ([8]; strain ECO+ 15-3): 32 µg/mL (≈ 79.1 µM)
MIC (anti-bacterial activity) ([8]; strain ECO+ 15-4): 32 µg/mL (≈ 79.1 µM)
MIC (anti-bacterial activity) ([8]; strain ECO− 15-1): 32 µg/mL (≈ 79.1 µM)
MIC (anti-bacterial activity) ([8]; strain ECO− 15-2): 32 µg/mL (≈ 79.1 µM)
MIC (anti-bacterial activity) ([8]; strain ECO− 15-3): 32 µg/mL (≈ 79.1 µM)
MIC (anti-bacterial activity) ([8]; strain ECO− 15-4): 32 µg/mL (≈ 79.1 µM)
MIC (anti-bacterial activity) ([9]; strain EFA 15-1): 4 µg/mL (≈ 9.89 µM)
MIC (anti-bacterial activity) ([9]; strain EFA 15-2): 4 µg/mL (≈ 9.89 µM)
MIC (anti-bacterial activity) ([9]; strain EFA 15-3): 4 µg/mL (≈ 9.89 µM)
MIC (anti-bacterial activity) ([9]; strain EFA 15-4): 4 µg/mL (≈ 9.89 µM)
MIC (anti-bacterial activity) ([9]; strain EFA 15-5): 4 µg/mL (≈ 9.89 µM)
MIC (anti-bacterial activity) ([9]; strain EFA 15-6): 4 µg/mL (≈ 9.89 µM)
MIC (anti-bacterial activity) ([9]; strain EFA 15-9): 4 µg/mL (≈ 9.89 µM)
MIC (anti-bacterial activity) ([10]; strain EFM 15-1): 2 µg/mL (≈ 4.94 µM)
MIC (anti-bacterial activity) ([10]; strain EFM 15-2): 2 µg/mL (≈ 4.94 µM)
MIC (anti-bacterial activity) ([10]; strain EFM 15-3): 2 µg/mL (≈ 4.94 µM)
MIC (anti-bacterial activity) ([10]; strain EFM 15-4): 2 µg/mL (≈ 4.94 µM)
MIC (anti-bacterial activity) ([10]; strain EFM 15-5): 1 µg/mL (≈ 2.47 µM)
MIC (anti-bacterial activity) ([10]; strain EFM 15-6): 2 µg/mL (≈ 4.94 µM)

Cc1cc(NC(=O)[C@@H]2CC3(CC3)CN2C(=O)[C@H](CC2CCCC2)CN(O)C=O)no1 [Example 39]
inhibition at 30 µM [1]: -10%
MIC (anti-bacterial activity) ([2]; strain MSSE 15-3): 1 µg/mL (≈ 2.39 µM)
MIC (anti-bacterial activity) ([2]; strain MSSE 15-4): 1 µg/mL (≈ 2.39 µM)
MIC (anti-bacterial activity) ([2]; strain MSSE 15-5): 1 µg/mL (≈ 2.39 µM)
MIC (anti-bacterial activity) ([2]; strain MSSE 15-6): 1 µg/mL (≈ 2.39 µM)
MIC (anti-bacterial activity) ([3]; strain SPN 16-2): 0.5 µg/mL (≈ 1.19 µM)
MIC (anti-bacterial activity) ([3]; strain SPN 16-4): 4 µg/mL (≈ 9.56 µM)
MIC (anti-bacterial activity) ([4]; strain MSSA 15-3): 1 µg/mL (≈ 2.39 µM)
MIC (anti-bacterial activity) ([4]; strain MSSA 15-4): 1 µg/mL (≈ 2.39 µM)
MIC (anti-bacterial activity) ([4]; strain MSSA 15-5): 1 µg/mL (≈ 2.39 µM)
MIC (anti-bacterial activity) ([4]; strain MSSA 15-6): 1 µg/mL (≈ 2.39 µM)
MIC (anti-bacterial activity) ([5]; strain MRSA 15-1): 1 µg/mL (≈ 2.39 µM)
MIC (anti-bacterial activity) ([5]; strain MRSA 15-2): 1 µg/mL (≈ 2.39 µM)
MIC (anti-bacterial activity) ([5]; strain MRSA 15-3): 1 µg/mL (≈ 2.39 µM)
MIC (anti-bacterial activity) ([5]; strain MRSA 15-4): 1 µg/mL (≈ 2.39 µM)
Anti-bacterial activity (MIC), strain BCA 14-10 [6]: 0.5 µg/mL
MIC (anti-bacterial activity) ([6]; strain BCA 14-1): 1 µg/mL (≈ 2.39 µM)
MIC (anti-bacterial activity) ([6]; strain BCA 14-4): 1 µg/mL (≈ 2.39 µM)
MIC (anti-bacterial activity) ([6]; strain BCA 14-5): 0.5 µg/mL (≈ 1.19 µM)
MIC (anti-bacterial activity) ([6]; strain BCA 14-6): 1 µg/mL (≈ 2.39 µM)
MIC (anti-bacterial activity) ([6]; strain BCA 14-7): 1 µg/mL (≈ 2.39 µM)
MIC (anti-bacterial activity) ([6]; strain BCA 14-8): 1 µg/mL (≈ 2.39 µM)
MIC (anti-bacterial activity) ([7]; strain MRSE 15-1): 1 µg/mL (≈ 2.39 µM)
MIC (anti-bacterial activity) ([7]; strain MRSE 15-2): 1 µg/mL (≈ 2.39 µM)
MIC (anti-bacterial activity) ([7]; strain MRSE 15-3): 1 µg/mL (≈ 2.39 µM)
MIC (anti-bacterial activity) ([7]; strain MRSE 15-7): 1 µg/mL (≈ 2.39 µM)
MIC (anti-bacterial activity) ([8]; strain ECO+ 15-1): 16 µg/mL (≈ 38.2 µM)
MIC (anti-bacterial activity) ([8]; strain ECO+ 15-2): 32 µg/mL (≈ 76.5 µM)
MIC (anti-bacterial activity) ([8]; strain ECO+ 15-3): 32 µg/mL (≈ 76.5 µM)
MIC (anti-bacterial activity) ([8]; strain ECO+ 15-4): 16 µg/mL (≈ 38.2 µM)
MIC (anti-bacterial activity) ([8]; strain ECO− 15-1): 32 µg/mL (≈ 76.5 µM)
MIC (anti-bacterial activity) ([8]; strain ECO− 15-2): 32 µg/mL (≈ 76.5 µM)
MIC (anti-bacterial activity) ([8]; strain ECO− 15-3): 32 µg/mL (≈ 76.5 µM)
MIC (anti-bacterial activity) ([8]; strain ECO− 15-4): 32 µg/mL (≈ 76.5 µM)
MIC (anti-bacterial activity) ([9]; strain EFA 15-1): 4 µg/mL (≈ 9.56 µM)
MIC (anti-bacterial activity) ([9]; strain EFA 15-2): 4 µg/mL (≈ 9.56 µM)
MIC (anti-bacterial activity) ([9]; strain EFA 15-3): 1 µg/mL (≈ 2.39 µM)
MIC (anti-bacterial activity) ([9]; strain EFA 15-4): 4 µg/mL (≈ 9.56 µM)
MIC (anti-bacterial activity) ([9]; strain EFA 15-5): 4 µg/mL (≈ 9.56 µM)
MIC (anti-bacterial activity) ([9]; strain EFA 15-6): 4 µg/mL (≈ 9.56 µM)
MIC (anti-bacterial activity) ([9]; strain EFA 15-9): 4 µg/mL (≈ 9.56 µM)
MIC (anti-bacterial activity) ([10]; strain EFM 15-1): 1 µg/mL (≈ 2.39 µM)
MIC (anti-bacterial activity) ([10]; strain EFM 15-2): 1 µg/mL (≈ 2.39 µM)
MIC (anti-bacterial activity) ([10]; strain EFM 15-3): 0.5 µg/mL (≈ 1.19 µM)
MIC (anti-bacterial activity) ([10]; strain EFM 15-4): 1 µg/mL (≈ 2.39 µM)
MIC (anti-bacterial activity) ([10]; strain EFM 15-5): 1 µg/mL (≈ 2.39 µM)
MIC (anti-bacterial activity) ([10]; strain EFM 15-6): 1 µg/mL (≈ 2.39 µM)
